Experimental data reported in PMC4919791, “Effect of curcumin analogs onα-synuclein aggregation and cytotoxicity” (Scientific Reports, 2016).

How the values were obtained:
[1] = molecular target: T1, preformed α-Syn fibrils (Homo sapiens, UniProt P37840); assay: LDH cytotoxicity assay of preformed α-Syn fibrils incubated with curcumin analogs; format: cell-based; conditions: fibrils incubated with analog 48 h; SH-SY5Y cells
T1 construct: made in house; host or cells: Escherichia coli BL21
Protocol: The concentration of the fibrils was determined by subtraction of supernatant concentration from the original concentration of α-Syn kept for fibrillation.
The percent LDH release was plotted as difference in the absorbance value of 490 nm and 690 nm, considering 100% release for the TritonX-100 treated cells.

[2] = Stability of curcumin analogs by time-dependent intrinsic fluorescence; format: physicochemical; conditions: 20 mM MES buffer pH 6.0, 0.01% NaN3, 37 °C
Protocol: 1μl of this DMSO-stock solution was transferred to 2 ml microfuge tube and 1 ml of 20 mM MES buffer (pH 6.0, 0.01% NaN3) was added to it and mixed immediately by vortexing. These solutions were incubated at 37 °C and their respective fluorescence was taken at certain time intervals. The fluorescence was monitored by placing the 200 μl of the incubated solution in 0.1 cm path-length quartz cuvette (Hellma, Forest Hills, NY) and the spectra were acquired by using FluoroMax-4 spectrofluorometer (HORIBA JobinYvon) instrument with excitation and emission slit widths of 5 nm and 10 nm respectively. The fluorescence intensity maxima for each sample were plotted against time of incubation and fitted in exponential decay 1 in the Origin 8.0 software according to manufacture’s protocol (Fig. 2A).

[3] = molecular target: T2, α-Syn (Homo sapiens, UniProt P37840); assay: α-Syn aggregation kinetics by compound fluorescence; format: biochemical; conditions: in presence of analog
T2 construct: made in house; host or cells: Escherichia coli BL21
Protocol: ThT fluorescence was used to monitor the aggregation kinetics of α-Syn only as a control.
(§1) Subsequently, we examined the effect of these analogs on α-Syn oligomerization by time dependent static light scattering experiment. […] After aggregation, TEM study was done to determine the effects of these analogs on the morphology of the resultant aggregates.
The α-Syn amyloid aggregation was started with LMW α-Syn of concentration ~300 μM in 1.5 ml microfuge tube in 20 mM MES buffer, pH 6.0, with 0.01% NaN3. […] The microfuge tubes with protein solutions were placed into Echo-Therm model RT11 vertical rotor (Torrey Pines Scientific, USA) with a speed of 50 rpm, at 37 °C inside an incubator.
The experiments were performed in FluoroMax-4 spectrofluorometer (HORIBA JobinYvon) with excitation and emission slit widths of 5 nm. Fluorescence was done in 20 mM MES buffer (pH 6.0, 0.01% NaN3).

[4] = molecular target: T1, preformed α-Syn fibrils; assay: Nile red binding assay on preformed α-Syn fibrils; format: biochemical; conditions: fibrils incubated with analog 48 h
Protocol: Stock solution of NR was prepared in DMSO (1 mM). […] Similar experimental protocol was used for NR binding to oligomers. FluoroMax-4 spectrofluorometer (HORIBA JobinYvon) was used with excitation and emission slit widths of 5 nm. The maximum NR fluorescence obtained at ~630 nm was used for plotting bar diagrams.

[5] = molecular target: T2, α-Syn; assay: TEM of α-Syn aggregates formed in presence of analogs; format: biochemical
Protocol: as §1
(§2) The samples were then washed thrice with autoclaved MQ. The samples were then stained with 10 μl of uranyl formate 1% (w/v) and incubated in dark for 10 min. The EM image of each sample was acquired at 120 kV with magnifications in the range of 26,000X and 43,000X using a transmission electron microscope (TECNAI12 D312 FEI, Netherlands).

[6] = molecular target: T3, α-Syn oligomers (Homo sapiens, UniProt P37840); assay: Binding affinity to α-Syn oligomers by curcumin analog fluorescence; conditions: for Kd: compound fluorescence, read-out: dissociation constant (Kd) for α-Syn oligomers; for affinity to oligomers compared to fibrils: comparison of Kd for fibrils and oligomers
T3 construct: made in house; host or cells: Escherichia coli BL21
Protocol: Immediately after incubation, fluorescence study was performed (for the excitation and emission ranges for each compounds, see Fig. S1). Experiments were performed using FluoroMax-4 spectrofluorometer (HORIBA JobinYvon) with excitation and emission slit widths of 5 nm.
The data were analyzed in Graphpad Prism software according to established method as used previously.

[7] = molecular target: T4, preformed α-Syn amyloid fibrils (Homo sapiens, UniProt P37840); assay: TEM of preformed α-Syn fibrils with analogs; format: biochemical; conditions: after 48 h incubation with analog
T4 construct: made in house; host or cells: Escherichia coli BL21
Protocol: as §2

[8] = molecular target: T5, α-Syn fibrils (Homo sapiens, UniProt P37840); assay: Binding affinity to α-Syn fibrils by curcumin analog fluorescence; conditions: for binding with preformed α-Syn fibrils: compound fluorescence
T5 construct: made in house; host or cells: Escherichia coli BL21
Protocol: To estimate the comparative binding affinity of curcumin analogs to the α-Syn fibrils and oligomers, curcumin fluorescence assay was performed for each analog. For binding study with fibrils, 10 μM of α-Syn fibrils were incubated in presence of varying concentration of curcumin and its analogs (0.25 μM to 30 μM) for 30 min at RT in dark and then fluorescence spectra were recorded. The normalized fluorescence intensity of different concentrations of curcumin/analogs at their corresponding λmax was plotted to obtain their respective saturation plots (Figs 6A and S7). From the saturation plot, dissociation constant (Kd) was calculated (see method section).
The binding of curcumin/analogs to α-Syn fibrils were determined based on change in fluorescence intensity. For this study, 10 μM α-Syn fibrils were incubated in presence and absence of varying concentration of curcumin/analogs (0.25 μM to 30 μM) for 30 min at RT in dark. Immediately after incubation, fluorescence study was performed (for the excitation and emission ranges for each compounds, see Fig. S1). Experiments were performed using FluoroMax-4 spectrofluorometer (HORIBA JobinYvon) with excitation and emission slit widths of 5 nm. The maximum fluorescence intensity for curcumin/analogs was normalized with respect to that of the lowest concentration of each analog. The normalized fluorescence intensity was plotted against increasing concentration of curcumin/analogs and the dissociation constant was determined using the equation
where, “ΔF” is the change in the fluorescence intensity of curcumin/analogs, “ΔFmax” is the change in the fluorescence intensity at saturation point and “L”is the concentration of curcumin/analogs. The data were analyzed in Graphpad Prism software according to established method as used previously. Similarly, the dissociation constant of curcumin and its analogs with preformed α-Syn oligomers and monomers (obtained from SEC) were also determined.

| SMILES | effect on cell death by preformed α-Syn fibrils, LDH [1] | relative stability compared with curcumin (slope of normalized fluorescence versus time) [2] | effect on rate/kinetics of α-Syn aggregation [3] | Nile red fluorescence of preformed α-Syn fibrils (exposed hydrophobic surface) [4] | morphology of α-Syn aggregates formed in presence of analog (TEM) [5] | Kd [6] [µM] | affinity to oligomers compared to fibrils [6] | fibril morphology/thickness of preformed α-Syn fibrils (TEM, words) [7] | average fibril thickness of fibrils formed in presence of analog [5] | Kd ([8]; 10 μM fibrils, 0.25–30 μM analog, 30 min RT, read-out: dissociation constant (Kd) for α-Syn fibrils) [µM] | binding with preformed α-Syn fibrils [8] |
| --- | --- | --- | --- | --- | --- | --- | --- | --- | --- | --- | --- |
| COc1ccc(OC)c(/C=C/C(=O)CC(=O)/C=C/c2cc(OC)ccc2OC)c1 [C5] | decrease in cell death | relatively more stable than curcumin | increases the rate of α-Syn aggregation | less NR fluorescence for fibrils as compared to curcumin | fibrils with shorter length | – | – | – | – | – | – |
| COc1ccc(/C=C/C(=O)CC(=O)/C=C/c2ccc(OC)cc2OC)c(OC)c1 [C4] | – | – | – | – | – | 16.5 ± 2.63 | – | – | – | – | – |
| O=C(/C=C/c1cccs1)CC(=O)/C=C/c1cccs1 [C8] | decrease in cell death | relatively more stable than curcumin | less significant effect | – | – | 1.46 ± 0.2 | higher binding affinity to oligomers as compared to fibrils | thinner fibrils | – | – | – |
| O=C(/C=C/c1ccccc1)CC(=O)/C=C/c1ccccc1 [C7] | decrease in cell death | relatively more stable than curcumin | – | – | fibrils with shorter length | – | – | thinner fibrils | more in comparison to fibrils formed in presence of other analogs | 13.2 ± 2.29 | very weak binding |
| COc1ccc(/C=C/C(=O)CC(=O)/C=C/c2ccc(OC)cc2)cc1 [C10] | decrease in cell death | relatively more stable than curcumin | – | – | fibrils with shorter length | – | higher binding affinity to oligomers as compared to fibrils | – | – | – | – |
| O=C(/C=C/c1cccnc1)CC(=O)/C=C/c1cccnc1 [C9] | – | relatively more stable than curcumin | less significant effect | – | fibrils with shorter length | – | – | thinner fibrils | – | – | did not show any significant binding |
